One experiment deals with T1, β2-Microglobulin (Homo sapiens, UniProt P61769).
T1 construct: β2-microglobulin (Human Urine ≥98% (SDS-PAGE)); purchased Lee Biosolutions; host or cells: human urine
The experiment can be described thus: Photochemical labeling of β2-microglobulin with pyridinium salt (General Procedure B, LC/MS). The class given is biochemical. Particulars: trypsin digest. The method, then: (§1) General Procedure B: Photochemical Irradiation of Peptides and Proteins: To a 2 mL Pyrex LC/MS vial (Thermo model #03-391-39) were sequentially added solutions containing the desired biomolecule, glutathione (GSH), pyridinium salt, and ammonium acetate (NH4OAc). The resulting solution was diluted to a final volume of 500 μL and then sparged using nitrogen for a minimum of 30 minutes prior to irradiation. The actively sparging solution was then placed in an EvoluChem™ PhotoRedOx Box photoreactor that was equipped with a Kessil, PR160 427 nm LED Lamp and was then irradiated (100% lamp intensity) for the designated time at room temperature while maintaining active sparging. The resultant reaction mixture was then analyzed directly by LC/MS. Analysis of labeling outcomes using LC/MS was performed either by extracted ion chromatogram intensities (method A) or by integrating the area under the peaks associated with peptide content (method B). […]
Labeling of β2-Microglobulin with Pyridinium Salt 2a (β2-Microglobulin-2a Conjugate). […] The reaction mixture was directly analyzed by LC/MS using method A and was estimated to have proceeded with 88% conversion with a >20:1 mono:di labeled ratio and 7% glutathionylation of all unlabeled and labeled protein content. β2-Microglobulin-2a conjugate (retention time (Tr)=3.26-4.70 min). […]

Experiment [1] deals with T2, bovine carbonic anhydrase II (Bos taurus, UniProt P00921).
T2 construct: Carbonic Anhydrase Isozyme II from bovine erythrocytes; purchased Sigma Aldrich; host or cells: bovine erythrocytes
T2 sequence (P00921 whole entry): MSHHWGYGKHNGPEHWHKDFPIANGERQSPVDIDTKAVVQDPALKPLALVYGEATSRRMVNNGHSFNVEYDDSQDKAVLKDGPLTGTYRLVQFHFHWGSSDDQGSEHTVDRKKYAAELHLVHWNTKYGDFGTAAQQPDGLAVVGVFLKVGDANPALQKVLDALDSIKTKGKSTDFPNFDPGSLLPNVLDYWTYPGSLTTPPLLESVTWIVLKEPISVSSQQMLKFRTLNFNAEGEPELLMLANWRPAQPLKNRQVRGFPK
The experiment in a line: Photochemical labeling of bovine carbonic anhydrase II with pyridinium salt (General Procedure B, LC/MS). The class given is biochemical. Particulars: trypsin digest. Here is the method:
as §1, with “LC/MS.” for “LC/MS. Analysis of labeling outcomes using LC/MS was performed either by extracted ion chromatogram intensities (method A) or by integrating the area under the peaks associated with peptide content (method B).”
Labeling of Bovine Carbonic Anhydrase II with Pyridinium Salt 2a (Bovine Carbonic Anhydrase II-2a Conjugate). […] The reaction mixture was directly analyzed by LC/MS using method A and was estimated to have proceeded with 34% conversion and a 4.5:1 mono:di labeled ratio. […]
General Trypsin Digest Protocol B: For non-cystine bridged labeled proteins, a standard trypsin digest was modified as follows. […] The digested mixture was analyzed directly by LC/MS and MS/MS using method C. […]

Counter-ions that a name gives are not always drawn.

T1 sequence (P61769 21-119): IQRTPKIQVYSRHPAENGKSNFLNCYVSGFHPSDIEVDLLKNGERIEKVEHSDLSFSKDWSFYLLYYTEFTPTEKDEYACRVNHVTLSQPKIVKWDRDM

With `COC(=O)N(C)[n+]1c(C)cc(-c2ccc3cc(OC)ccc3c2)cc1C` [pyridinium salt 2a, 1-((methoxycarbonyl)(methyl)amino)-4-(6-methoxynapthalen-2-yl)-2,6-dimethylpyridin-1-ium tetrafluoroborate], the “Modified Trp” value at β2-Microglobulin is given as “Trp-60”; in experiment [1] it was “Trp-243”.

The values above are taken from patent publication US20240262845A1, “PYRIDINIUM SALTS, METHODS OF MAKING, AND METHODS OF USE” (UNIVERSITY OF WYOMING, priority 2023, published 2024).
